Measurements from US20220154296A1, “USE OF ANTI-PD-1 ANTIBODY IN PREPARATION OF MEDICAMENT FOR TREATING SOLID TUMORS” (Shanghai Junshi Biosciences Co., Ltd., priority 2019, published 2022).

Tests used:
advanced ESCC = assay: Phase Ib/II clinical trial, anti-tumor activity study (RECIST v1.1), with biomarker subgroups; type: in vivo, human
Method: From Mar. 9, 2017 to Aug.
PD-L1 was detected in formalin-fixed paraffin-embedded (FFPE) tumor tissue samples by immunohistochemistry (IHC) methods and verified on the VENTANA Benchmark Ultra system at the clinical center laboratory (Q2 laboratory, Beijing). The immunohistochemistry detection of PD-L1 was performed using the Spring Bioscience (Roche) rabbit anti-human PD-L1 monoclonal antibody (clone SP142, Cat No: M4422). The expression of PD-L1 on tumor cells (TCs) and tumor infiltrating immune cells (ICs) was assessed by certified pathologists using stained tumor tissue. The PD-L1 positive status is defined as the presence of tumor cells with membrane staining intensity ≥1% or the presence of PD-LI staining intensity of tumor infiltrating immune cells covering ≥1% of related, continuous pen-cancerous stromal tumor area in the tumor occupied by tumor cells.
During the clinical trial described in Example 1, tumor biopsy samples from 50 subjects were subjected to whole exome sequencing (WES). TMB was determined by analyzing somatic mutations within coding regions of the human genome.

CT-26 cells = assay: Inhibitory effect on tumor growth in CT-26 cell-transplanted B-hPD-1 mice; type: in vivo
Method: CT-26 cells were seeded subcutaneously on the right side of hPD-1 humanized female mice at a concentration of 2.5×10^5 cells/0.1 mL, and the mice were randomly grouped by tumor volume when tumors grew to about 93 mm^3 with 7 mice per group, for a total of 4 groups:
G1: Anti-KLH hIgG4 (1 mg/kg) negative control group;
G3: palbociclib (100 mg/kg);
The experiment was ended 11 days after the first administration. Tumor volume and body weight of mice were measured and recorded twice a week. At the end of the experiment, animals were euthanized and tumor growth inhibition (TGITv%) was calculated.

[1] = 59 patients, investigator-assessed RECIST v1.1
[2] = patients with 11q13 amplification (n=24)
[3] = patients with low or no PD-L1 expression (5% cutoff)
[4] = patients without 11q13 amplification (n=26)
[5] = subjects with more than 5% PD-L1 expression
[6] = without vs. with 11q13 amplification

Substance: toripalimab: humanized IgG4 anti-PD-1 mAb comprising light and heavy chain amino acid sequences set forth in SEQ ID NOs: 9 and 10 (WO2014206107)
- ORR confirmed (advanced ESCC; 59 patients): 15.3%
- DCR (advanced ESCC; 59 patients, RECIST v1.1): 47.5%
- Optimal response rate (advanced ESCC; 59 patients, RECIST v1.1): 18.6%
- CR (advanced ESCC; [1]): 1 case
- PR (including 2 cases of undiagnosed PR) (advanced ESCC; [1]): 10 cases
- Subjects who had died (advanced ESCC; 59 subjects, as of Dec. 31, 2018): 67.8%
- Median PFS (advanced ESCC; PD-L1 negative subjects): 2.0 months
- ORR (advanced ESCC; PD-L1 negative subjects): 18.4%
- OS (advanced ESCC; PD-L1 negative subjects): 6.9 months
- OS (advanced ESCC; PD-L1 positive patients): 6.7 months
- ORR (advanced ESCC; PD-L1 positive patients (≥1% TC or IC, SP142 IHC)): 15.8%
- Median PFS (advanced ESCC; PD-L1 positive subjects): 3.4 months
- OR (advanced ESCC; TMB equal to or greater than 12 mutations/Mb (n=11)): 18.2%
- OR (advanced ESCC; TMB less than 12 mutations/Mb (n=36)): 19.4%
- Optimal response (%) (advanced ESCC; Total, 59 people): 18.6%
- Mean response time (advanced ESCC; all patients): 1.8 months
- Median OS (advanced ESCC; all patients): 6.9 months
- Median PFS (advanced ESCC; all patients): 2.1 months
- Median duration of response (advanced ESCC; all patients): 11.2 months
- Subjects with arbitrary size reduction in target lesions relative to baseline (advanced ESCC; all patients): 42.4%
- OS (advanced ESCC; high TMB (≥12)): 11.5 months
- PFS (advanced ESCC; high TMB (≥12)): 4.0 months
- OS (advanced ESCC; low TMB (<12)): 6.7 months
- PFS (advanced ESCC; low TMB (<12)): 1.9 months
- Median OS (advanced ESCC; patients with 11q13 amplification): 5.6 months
- Objective response rate (advanced ESCC; [2]): 42
- PFS (advanced ESCC; [2]): 1.0 month
- DCR (advanced ESCC; [3]): 42.3%
- ORR (advanced ESCC; [3]): 15.4%
- Median OS (advanced ESCC; patients without 11q13 amplification): 11.5 months
- Objective response rate (advanced ESCC; [4]): 30.8%
- PFS (advanced ESCC; [4]): 3.7 months
- Optimal response (%) (advanced ESCC; subgroup Age >60, 29 people): 20.7%
- Optimal response (%) (advanced ESCC; subgroup Age ≤60, 30 people): 16.7%
- Optimal response (%) (advanced ESCC; subgroup ECOG 0, 5 people): 40.0%
- Optimal response (%) (advanced ESCC; subgroup ECOG 1, 54 people): 16.7%
- Optimal response (%) (advanced ESCC; subgroup LDH >ULN, 14 people): 28.6%
- Optimal response (%) (advanced ESCC; subgroup LDH Normal, 45 people): 15.6%
- Optimal response (%) (advanced ESCC; subgroup Liver metastasis No, 43 people): 18.6%
- Optimal response (%) (advanced ESCC; subgroup Liver metastasis Yes, 16 people): 18.8%
- Optimal response (%) (advanced ESCC; subgroup Prior treatment 1, 13 people): 15.4%
- Optimal response (%) (advanced ESCC; subgroup Prior treatment 2, 19 people): 15.8%
- Optimal response (%) (advanced ESCC; subgroup Prior treatment 3+, 27 people): 22.2%
- Optimal response (%) (advanced ESCC; subgroup Sex Female, 7 people): 14.3%
- Optimal response (%) (advanced ESCC; subgroup Sex Male, 52 people): 19.2%
- Optimal response (%) (advanced ESCC; subgroup Tumor volume (baseline target lesion) >100 mm, 13 people): 15.4%
- Optimal response (%) (advanced ESCC; subgroup Tumor volume (baseline target lesion) ≤100 mm, 46 people): 19.6%
- DCR (advanced ESCC; [5]): 100%
- ORR (advanced ESCC; [5]): 40%
- HR for OS (advanced ESCC; [6]): 0.60
- HR for PFS (advanced ESCC; [6]): 0.47
- TGI (%) (CT-26 cells; 11 days after the first administration, toripalimab 1 mg/kg i.p., palbociclib 100 mg/kg orally): 8.0%
- Tumor volume 11 days after the first administration (CT-26 cells; mean ± standard error, toripalimab 1 mg/kg i.p. twice a week, palbociclib 100 mg/kg orally once a day, 7 mice per group): 2519 ± 320 mm^3
